Laboratory results from ChEMBL document CHEMBL4418276, “Boldine derivatives for promoting bone growth” (2014).

Molecular target: T1, Sclerostin (Homo sapiens, UniProt Q9BQB4)
T1 sequence (Q9BQB4 whole entry): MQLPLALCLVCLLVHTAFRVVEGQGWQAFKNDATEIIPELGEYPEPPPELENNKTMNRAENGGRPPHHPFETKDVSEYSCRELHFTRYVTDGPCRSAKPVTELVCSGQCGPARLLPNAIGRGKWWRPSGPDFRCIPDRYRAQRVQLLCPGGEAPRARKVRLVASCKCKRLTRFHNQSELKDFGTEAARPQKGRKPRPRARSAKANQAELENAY
Assay: Inhibition of sclerostin in human embryonic cells assessed as restoration of Wnt signaling by luciferase reporter gene assay
Assay type: cell-based

COc1cc2c(cc1OC)-c1c(OC)c(OC)c(C=O)c3c1[C@H](C2)N(C)CC3
IC50: 1500 nM
